Data: PMC5487681, “Identification of Antifungal H^+-ATPase Inhibitors with Effect on Plasma Membrane Potential” (Antimicrobial Agents and Chemotherapy, 2017)
Where two headings read alike, the source gives them in different places. Residues, ends and D or L forms follow the SMILES beside them.

Tests used:
Ca^2+-ATPase (SERCA1a) = Ca^2+-ATPase (SERCA1a) (Oryctolagus cuniculus, UniProt P04191); experiment: ATP hydrolysis assay, SERCA; assay type: biochemical, rabbit
Method: Rabbit sarcoplasmic reticulum membranes containing sarcoplasmic endoplasmic reticulum Ca^2+-ATPase (SERCA) were kindly provided by Claus E. Olesen and Jesper V. Møller, Aarhus University, and prepared as described in reference. Porcine kidney Na^+,K^+-ATPase was kindly provided by Natalya Fedosova, Aarhus University, and prepared as described in reference.
(§1) The protein activity levels were determined by measuring the amount of free phosphate produced from the ATP hydrolysis reaction. The assay was performed as described in reference. Each well contained ATPase enzyme, 2 μl of inhibitor (usually in the range of 333 to 0.01 μM) dissolved in dimethyl sulfoxide (DMSO) (Duchefa Biochemie, Haarlem, The Netherlands), and an assay buffer dependent on the enzyme for a final volume of 60 μl. Possible compound precipitation in the assay buffer was monitored using a Nephelostar plate reader measuring turbidity, and the information was taken into account in the IC50 determination. Pma1 assay buffer consisted of 20 mM 3-(N-morpholino)propanesulfonic acid (MOPS)–NaOH, pH 6.5 or 7.0, 8 mM MgSO4, 50 mM KNO3 (a vacuolar ATPase inhibitor), 25 mM sodium azide (a mitochondrial ATPase inhibitor), and 250 μM sodium molybdate (an acid phosphatase inhibitor). SERCA buffer consisted of 9 mM MOPS-NaOH, pH 7, 2.7 mM MgCl2, 90 μM CaCl2, and 72 mM KCl. Na^+,K^+-ATPase buffer consisted of 30 mM MOPS-NaOH, pH 7, 40 mM NaCl, 4 mM MgCl2, and 20 mM KCl. The concentration of protein was adjusted to obtain a signal of the optical density at 860 nm (OD860) of between 0.5 and 1.0 in the untreated samples (for all Pma1 batches, ∼1 to 2 μg/well; for SERCA and Na^+,K^+-ATPase, ∼0.1 to 0.2 μg/well).

S. cerevisiae Pma1 = S. cerevisiae Pma1 (Saccharomyces cerevisiae, UniProt P05030); experiment: ATP hydrolysis assay, S. cerevisiae plasma membranes containing Pma1; assay type: biochemical; set-up: containing the full-length cDNA of the S. cerevisiae plasma membrane H^+-ATPase isoform PMA1; made in house; host or cells: S. cerevisiae RS72 (PMA1 cDNA under PMA1 promoter); also wild-type S. cerevisiae ATCC 9763; settings: for Selectivity for Pma1 over Na^+,K^+-ATPase / Selectivity for Pma1 over SERCA / Selectivity toward Pma1 than toward SERCA or Na^+,K^+-ATPase: from IC50 of Table 2
Method: Plasma membranes containing Pma1 were isolated from S. cerevisiae RS72 cells containing the full-length cDNA of the S. cerevisiae plasma membrane H^+-ATPase isoform PMA1 under the control of the PMA1 promoter, as described in reference.
A 100-ml overnight culture in YPD medium [10 g/liter yeast extract (BD, Sparks, MD), 20 g/liter Bacto peptone (BD), 20 g/liter D-(+)-glucose] was transferred to 1 liter YPD medium and grown at room temperature and 150 rpm for 18 h for wild-type S. cerevisiae (ATCC 9763) and 7 h for C. albicans. The cells were harvested and washed in Milli-Q H2O by centrifugation at 3,360 × g. The cells were glucose activated by the addition of 10% D-(+)-glucose for 10 min while shaking. The cells were then centrifuged at 3,360 × g for 3 min and frozen. Cells (60 to 80 g, wet weight) were then disrupted by bead beating (BioSpec, Bartlesville, OK) and processed as described in reference to prepare the plasma membranes. […] All batches were validated by ATPase hydrolysis activity, pH optimum, and orthovanadate sensitivity.
as §1, with “μg/well). […]” for “μg/well).”

C. albicans = experiment: Medium acidification assay, C. albicans; assay type: cell-based, Candida albicans
Method: Frozen stocks of C. albicans and S. cerevisiae were transferred to YPD agar plates and incubated overnight at 34°C. On the next day, the cells were suspended and washed twice in 50 mM KCl, pH 6.7, after pelleting of the cells by centrifugation at 3,000 × g for 5 min. The cells were then starved overnight at 4°C in the KCl solution. […] The pH drop was then monitored by determination of the fluorescent signal with excitation at 485 nm and emission at 538 nm on a Fluoroskan Ascent plate reader (Thermo Fisher Scientific) for 12 min. The rate of medium acidification was calculated on the basis of the slope of the drop in fluorescence.

[1] = Table 2, pH 7, n = 2, read-out: IC50 for ATP hydrolysis, S. cerevisiae Pma1
[2] = Table 1, ATP hydrolysis at pH 6.5 (compounds marked b), 2 to 3 experiments, read-out: IC50 Pma1
[3] = Table 1, ATP hydrolysis at pH 7, 2 to 3 experiments, read-out: IC50 Pma1
[4] = ATP hydrolysis, S. cerevisiae Pma1, read-out: IC50 for Pma1
[5] = Candida albicans, 0.2 h, 50% inhibition of medium acidification, 12 min, n = 2 to 3, read-out: IC50 for acidification, C. albicans
[6] = Table 2, pH 7, n = 2, rabbit SERCA1a, read-out: IC50 for ATP hydrolysis, SERCA

Sequence of Ca^2+-ATPase (SERCA1a) (P04191 1-994 isoform P04191-2): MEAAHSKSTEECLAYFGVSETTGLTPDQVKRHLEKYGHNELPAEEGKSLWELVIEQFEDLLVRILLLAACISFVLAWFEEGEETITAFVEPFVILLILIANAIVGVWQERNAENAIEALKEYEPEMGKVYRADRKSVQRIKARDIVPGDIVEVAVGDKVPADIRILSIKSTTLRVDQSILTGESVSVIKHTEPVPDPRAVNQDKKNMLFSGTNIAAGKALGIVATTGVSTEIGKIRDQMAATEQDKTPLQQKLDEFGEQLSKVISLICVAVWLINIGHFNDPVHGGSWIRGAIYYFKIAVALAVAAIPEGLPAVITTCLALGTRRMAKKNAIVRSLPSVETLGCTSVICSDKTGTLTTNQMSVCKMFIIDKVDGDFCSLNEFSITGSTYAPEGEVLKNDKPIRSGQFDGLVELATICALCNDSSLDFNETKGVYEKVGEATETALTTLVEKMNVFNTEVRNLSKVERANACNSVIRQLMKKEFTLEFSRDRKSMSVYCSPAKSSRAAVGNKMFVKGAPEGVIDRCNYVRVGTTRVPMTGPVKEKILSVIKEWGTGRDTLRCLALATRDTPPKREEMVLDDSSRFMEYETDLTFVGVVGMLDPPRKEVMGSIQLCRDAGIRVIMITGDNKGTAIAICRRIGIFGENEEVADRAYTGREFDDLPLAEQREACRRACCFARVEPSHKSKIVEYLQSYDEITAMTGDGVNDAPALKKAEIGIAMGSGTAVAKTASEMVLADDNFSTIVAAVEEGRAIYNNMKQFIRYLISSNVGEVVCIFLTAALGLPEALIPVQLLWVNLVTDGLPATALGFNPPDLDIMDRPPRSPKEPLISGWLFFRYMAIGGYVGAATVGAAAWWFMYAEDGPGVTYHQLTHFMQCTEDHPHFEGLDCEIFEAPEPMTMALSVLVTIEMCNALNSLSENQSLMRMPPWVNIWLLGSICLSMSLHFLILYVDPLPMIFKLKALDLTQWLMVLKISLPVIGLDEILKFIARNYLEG
Sequence of S. cerevisiae Pma1 (P05030 whole entry, canonical isoform): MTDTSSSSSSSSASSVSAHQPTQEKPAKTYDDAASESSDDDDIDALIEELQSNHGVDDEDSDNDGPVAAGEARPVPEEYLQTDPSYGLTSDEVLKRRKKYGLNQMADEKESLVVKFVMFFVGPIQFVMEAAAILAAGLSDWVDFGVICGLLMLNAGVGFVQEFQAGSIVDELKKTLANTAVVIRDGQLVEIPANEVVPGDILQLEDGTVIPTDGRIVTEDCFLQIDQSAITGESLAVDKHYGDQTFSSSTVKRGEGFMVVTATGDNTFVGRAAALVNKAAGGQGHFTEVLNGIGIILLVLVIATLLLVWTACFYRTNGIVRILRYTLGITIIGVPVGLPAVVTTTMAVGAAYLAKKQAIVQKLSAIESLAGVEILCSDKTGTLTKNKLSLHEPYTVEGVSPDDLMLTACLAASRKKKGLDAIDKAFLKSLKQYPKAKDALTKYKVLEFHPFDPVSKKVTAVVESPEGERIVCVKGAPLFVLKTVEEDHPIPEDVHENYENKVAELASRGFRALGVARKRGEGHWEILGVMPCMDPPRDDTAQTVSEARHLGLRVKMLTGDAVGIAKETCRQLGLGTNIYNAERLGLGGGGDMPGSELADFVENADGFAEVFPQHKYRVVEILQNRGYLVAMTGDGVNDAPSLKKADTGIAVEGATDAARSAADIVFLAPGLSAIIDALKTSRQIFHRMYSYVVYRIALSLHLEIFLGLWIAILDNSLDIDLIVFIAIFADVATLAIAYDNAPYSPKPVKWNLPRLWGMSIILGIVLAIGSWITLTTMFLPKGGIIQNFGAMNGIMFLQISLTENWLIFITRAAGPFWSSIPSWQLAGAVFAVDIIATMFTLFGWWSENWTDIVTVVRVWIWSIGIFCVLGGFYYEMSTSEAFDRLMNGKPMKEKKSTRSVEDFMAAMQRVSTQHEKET

| SMILES | IC50 (Ca^2+-ATPase (SERCA1a)) [µM] | IC50 (S. cerevisiae Pma1; [1]) [µM] | IC50 (S. cerevisiae Pma1; [3]) [µM] | IC50 (C. albicans; [5]) [µM] | other results |
| --- | --- | --- | --- | --- | --- |
| N=C(N)NCCC[C@@H](N)C(=O)N[C@H](CCCNC(=N)N)C(=O)N[C@H](CCCNC(=N)N)C(=O)N[C@H](Cc1ccccc1)C(=O)N[C@H](Cc1c[nH]c2ccccc12)C(=O)N[C@H](Cc1c[nH]c2ccccc12)C(=O)N[C@H](Cc1ccccc1)C(=O)N[C@H](CCCNC(=N)N)C(=O)N[C@H](CCCNC(=N)N)C(=O)N[C@H](CCCNC(=N)N)C(N)=O [BM2, reference compound] (HELM PEPTIDE1{[dR].[dR].[dR].[dF].[dW].[dW].[dF].[dR].[dR].[dR].[am]}$$$$V2.0) | 1.1 | 1.2 ± 0.1 | – | – | Selectivity for Pma1 over Na^+,K^+-ATPase (S. cerevisiae Pma1): 8 fold |
| O=C1/C(=C/c2ccc(-c3cc(Cl)ccc3Cl)o2)C=C(c2ccccc2)N1c1ccccc1O [Compound 1] | 17.5 ± 4.7 | – | – | – | IC50 (S. cerevisiae Pma1; [2]): 0.04 ± 0.035 µM |
| COc1ccc(-c2cc(C(=O)Nc3ccc(C(C)C)cc3)c3ccccc3n2)c(OC)c1 [Compound 3] | > 105 | – | 2.5 ± 2.5 | – | – |
| CC1CCCCN1CC(O)Cn1c(-c2ccccc2)c(-c2ccccc2)c2ccc3ccccc3c21 (stereo not drawn) [Compound 4] | 4.1 ± 0.2 | – | – | – | IC50 (S. cerevisiae Pma1; [2]): 3.7 ± 0.7 µM |
| CCOc1ccc2nc3cc(NC(=O)c4cccc(Br)c4)ccc3c(N)c2c1 [Compound 5] | 0.46 ± 0.04 | – | – | – | IC50 (S. cerevisiae Pma1; [4]): < 25 µM; IC50 (S. cerevisiae Pma1; [2]): 4.4 ± 0.6 µM |
| Cc1c(-c2ccccc2)[o+]c2ccccc2c1C#Cc1ccccc1 [Compound 6] | – | – | – | – | IC50 (S. cerevisiae Pma1; [2]): 5 ± 3 µM |
| Oc1cccc(Nc2nc(-c3ccc(Cl)c(Cl)c3)cs2)c1 [Compound 7] | – | – | – | – | IC50 (S. cerevisiae Pma1; [4]): < 25 µM; IC50 (S. cerevisiae Pma1; [2]): 5.5 ± 0.3 µM |
| COc1ccc(-c2cc(C(=O)Nc3ccc4c(c3)OCCO4)c3ccccc3n2)c(OC)c1 [Compound 8] | > 105 | – | 6.9 ± 2 | – | – |
| COc1cccc(Nc2nc(Cl)nc(Nc3cccc(OC)c3)n2)c1 [Compound 9] | > 105 | – | 9.2 ± 1 | – | – |
| CCCCOc1ccc(C2C(C#N)=C(N)Oc3cc(O)ccc32)cc1 (stereo not drawn) [Compound 11] | 15.7 ± 2 | – | 12.8 ± 5 | – | – |
| COc1ccc(Cn2c(SCc3cc(C)ccc3C)nc3cc(OC)c(OC)cc3c2=N)cc1 [Compound 12] | – | – | 15.5 ± 8.1 | – | – |
| CCCCc1nc2sc3c(NCCCN(C)C)ncnc3c2c2c1CCCC2 [Compound 14] | 42 ± 8 | 13.7 ± 2 | 13.7 ± 2 | 6.6 ± 2.5 | Selectivity for Pma1 over SERCA (S. cerevisiae Pma1): 3 fold |
| CCCCc1nc2sc3c(NCCCN(C)C)nc(SC)nc3c2c2c1CCC2 [Compound 15] | – | 5.9 ± 0.2 | – | 1.6 | IC50 (Ca^2+-ATPase (SERCA1a); [6]): 4.5 µM; Selectivity toward Pma1 than toward SERCA or Na^+,K^+-ATPase (S. cerevisiae Pma1): no selectivity |
| CN(C)CCCNc1ncnc2c1sc1nc(N3CCCCC3)c3c(c12)CCCC3 [Compound 16] | 11.1 | 7.8 ± 0.6 | – | 3.4 ± 1.6 | Selectivity toward Pma1 than toward SERCA or Na^+,K^+-ATPase (S. cerevisiae Pma1): no selectivity |
| CCc1nc2sc3c(NCCCN(C)C)ncnc3c2c2c1CCCC2 [Compound 17] | > 333 | 107 ± 18.2 | – | 19.1 ± 1.7 | IC50 (S. cerevisiae Pma1; [4]): 107 µM |
| CN(C)CCCNc1ncnc2c1sc1nc(-c3ccccc3)c3c(c12)CCC3 [Compound 18] | 69.5 ± 6.9 | 18.5 ± 4.3 | – | 8.8 ± 0.4 | Selectivity for Pma1 over Na^+,K^+-ATPase (S. cerevisiae Pma1): 4 fold; Selectivity for Pma1 over SERCA (S. cerevisiae Pma1): 3 fold |
| CCN(CC)CCCNc1nc(SC)nc2c1sc1nc(-c3ccccc3)c3c(c12)CCC3 [Compound 19] | – | 7.3 ± 1 | – | 2.3 ± 0.5 | IC50 (Ca^2+-ATPase (SERCA1a); [6]): 4.4 ± 0.3 µM; Selectivity toward Pma1 than toward SERCA or Na^+,K^+-ATPase (S. cerevisiae Pma1): no selectivity |
| O=c1c2ccccc2[se]n1-c1ccccc1 [Ebselen, reference compound] | – | – | – | 9.4 ± 2.1 | IC50 (Ca^2+-ATPase (SERCA1a); [6]): 0.12 µM; IC50 (C. albicans; Candida albicans, read-out: IC50 for C. albicans, extracellular acidification): 11 µM |
| [O]=[V]([O-])([O-])[O-] [Vanadate, reference compound] | – | 0.25 ± 0.01 | – | – | IC50 (Ca^2+-ATPase (SERCA1a); [6]): 10.4 ± 2.4 µM; IC50 (C. albicans; 50% inhibition of medium acidification, 12 min, n = 2 to 3, read-out: IC50 for acidification, C. albicans): > 40 µM |
